Experimental data as given in patent US20140051918A1, “LAPAROSCOPIC GASTRIC BAND WITH ACTIVE AGENTS” (Allergan, Inc., priority 2009, published 2014).
Ends that are not written are not given here.

Experiment: Patient examples: laparoscopic gastric band releasing an active agent, with weight loss, appetite and blood sugar control reported
Type: in vivo, human
Details: 322 pounds; for weight lost by the patient: 5'11", within 12 months; for weight lost by the patient / appetite as reported by the patient: gastric band containing the agent, released to a goal plasma concentration over 3-24 months
Text: (§1) A patient, having a body weight of 322 pounds and a height of 5′11″, complains to their physician that they have tried unsuccessfully to lose weight over the past 15 years and is concerned about the effect their excess weight may have on their health. […] A reservoir containing glucagon like peptide 1 (GLP-1), according to any of the embodiments of this application may also be utilized.
as §1, with “oxyntomodulin (OXM),” for “glucagon like peptide 1 (GLP-1),”, “utilized. An injection, liquid, pill, spray, inhalant, patch, or oral substance such as a gum containing oxyntomodulin (OXM) may also be used.” for “utilized.”
A patient, having a body weight of 322 pounds and a height of 5′11″, complains to their physician that they have tried unsuccessfully to lose weight over the past 15 years and is concerned about the effect their excess weight may have on their health.
as §1, with “Pancreatic Peptide (PP),” for “glucagon like peptide 1 (GLP-1),”, “utilized. An injection, liquid, pill, spray, inhalant, patch, or oral substance such as a gum containing Pancreatic Peptide (PP) may also be used.” for “utilized.”
as §1, with “Insulin,” for “glucagon like peptide 1 (GLP-1),”, “utilized. An injection, liquid, pill, spray, inhalant, patch, or oral substance such as a gum containing Insulin may also be used.” for “utilized.”
as §1, with “Leptin,” for “glucagon like peptide 1 (GLP-1),”, “utilized. An injection, liquid, pill, spray, inhalant, patch, or oral substance such as a gum containing Leptin may also be used. […] In the case of a female patient the goal plasma concentrations would be [10-20 ng/mL]p.” for “utilized.”
as §1, with “Amylin,” for “glucagon like peptide 1 (GLP-1),”, “utilized. An injection, liquid, pill, spray, inhalant, patch, or oral substance such as a gum containing Amylin may also be used.” for “utilized.”
as §1, with “Cholecystokinin (CCK),” for “glucagon like peptide 1 (GLP-1),”, “utilized. An injection, liquid, pill, spray, inhalant, patch, or oral substance such as a gum containing Cholecystokinin (CCK) may also be used.” for “utilized.”

| Molecule | weight lost by the patient | appetite as reported by the patient | blood sugar control as reported by the patient (gastric band containing Insulin, released to plasma concentrations of 5-30 μU/mL over 3-24 months) |
| --- | --- | --- | --- |
| Amylin (KCNTATCATQRLANFLVHSSNNFGAILSSTNVGSNTY; not fully specified (C-terminus, bridges); cysteine pairing not given here; UniProt P10997 34-70, looked up) [satiety inducing peptide hormone] | 58 pounds | marked suppression of appetite |  |
| PYY: satiety inducing peptide hormone [Peptide Y-Y] | 58 pounds | marked suppression of appetite |  |
| Insulin |  |  | euglycemic effects, or better control by their body of blood sugars |
| oxyntomodulin [OXM] | 58 pounds | marked suppression of appetite |  |
| glucagon like peptide 1 (HAEGTFTSDVSSYLEGQAAKEFIAWLVKGR; ends and bridges not checked; UniProt P01275 98-127, looked up) [GLP-1, satiety inducing peptide hormone] | 58 pounds | marked suppression of appetite |  |
| Leptin | 58 pounds | marked suppression of appetite |  |
| Cocaine-Amphetamine Regulated Transcript [CART] | 58 pounds | marked suppression of appetite |  |
| Pancreatic Peptide (APLEPVYPGDNATPEQMAQYAADLRRYINMLTRPRY; ends and bridges not checked; UniProt P01298 30-65, looked up) [PP, satiety inducing peptide hormone] | 58 pounds | marked suppression of appetite |  |
| Ciliary neuro-trophic factor (protein, UniProt P26441 1-200, looked up) Ciliary neurotrophic factor: MAFTEHSPLTPHRRDLCSRSIWLARKIRSDLTALTESYVKHQGLNKNINLDSADGMPVASTDQWSELTEAERLQENLQAYRTFHVLLARLLEDQQVHFTPTEGDFHQAIHTLLLQVAAFAYQIEELMILLEYKIPRNEADGMPINVGDGGLFEKKLWGLKVLQELSQWTVRSIHDLRFISSHQTGIPARGSHYIANNKKM | 58 pounds | marked suppression of appetite |  |
| Cholecystokinin (peptide, UniProt P06307 21-115, looked up, Cholecystokinin, hormone that suppresses appetite when administered with or without gastric distension) Cholecystokinin: QPVPPADPAGSGLQRAEEAPRRQLRVSQRTDGESRAHLGALLARYIQQARKAPSGRMSIVKNLQNLDPSHRISDRDYMGWMDFGRRSAEEYEYPS | 58 pounds | marked suppression of appetite |  |
